Experiment [1] relates to CT26.WT KRas G12C E3 clone tumors. The experiment is described as follows: Tumor volumes of CT26.WT KRas G12C E3 clone tumor bearing mice, single agents and combination. The experiment is classed as in vivo, BALBc mice. How it is done: (§1) BALBc mice were inoculated in the right hind flank with 1×10^6 CT26.WT KRas G12C E3 cells harboring the KRas G12C mutation, and tumor volumes were measured using a caliper every two-three days and tumor volumes were calculated by the formula: […].
When tumor volumes reached between 200-400 mm^3 in size (Study Day 0), the mice were divided into four groups of 5 mice each. The first group was daily administered vehicle (10% Captisol in 50 mM citrate buffer pH 5.0) through Study Day 15 and also administered i.p. vehicle (BioXcel diluent) on Study Days 1, 4 and 7. The second group was […] a 10 mg/kg i.p. dose of the murine anti-PD-1 antibody (F26, BioXcel) at Days 1, 4 and 7.
At Study Day 39, four tumor-free mice from the combination group were rechallenged 1×10^6 CT26.WT KRas G12C E3 cells in the opposite left flank and mice were monitored for tumor growth for a period of twenty four days to determine whether a durable, adaptive immune response was observed.

For experiment [2] the test system is unchanged. The experiment is described as follows: Repeat study: tumor volumes of CT26.WT KRas G12C E3 clone tumor bearing mice, 10 animals per group. Format: in vivo, BALBc mice. Particulars: for Tumor volume: individual mice. The procedure:
as §1
In the second study the number of treated mice was increased from 5 animals per group to 10 animals per group.
When tumor volumes reach between 200-400 mm^3 in size (Study Day 0), the mice were divided into four groups of 10 mice each. The first group was daily administered vehicle (10% Captisol in 50 mM citrate buffer pH 5.0) through Study Day 10 and also administered i.p. vehicle (BioXcel diluent) on Study Days 1, 4 and 7. The second group was daily administered a 10 mg/kg i.p. dose of the murine anti-PD-1 antibody (F26, BioXcel) at Days 1, 4 and 7.

The values that follow come from US11890285B2, “Combination therapies” (Mirati Therapeutics, Inc., priority 2019, dated 2024).

“And” between values parts separate entries of the source, which are not always exact repeats. Equal entries are not always repeated.

Regarding `C=C(F)C(=O)N1CCN(c2nc(OC[C@@H]3CCCN3C)nc3c2CCN(c2cccc4cccc(Cl)c24)C3)C[C@@H]1CC#N` [Example 478], the “mice achieving a complete response” value in experiment [1] (5 mice per group) is on record as “all five treated mice achieving a complete response after nine days of administration”; in experiment [2] (10 mice per group), “all ten treated mice achieving a complete response”. For the same compound, the “tumor regrowth / time without a detectable tumor” value is “eventually tumor growth was detected at the original site of implantation in all five mice” in experiment [1] (Example 478 stopped at Study Day 29) and “eventually tumor growth was detected in 6 out of 9 mice at the original site of implantation” in experiment [2] (Example 478 stopped at Study Day 25). In addition, the Tumor volume in experiment [2] (Study Day 14, original implantation site (R), Example 478 100 mg/kg, F26 10 mg/kg i.p., listed as Example 47) was 0 mm^3 (9×) and 4 mm^3; in experiment [2] (Study Day 17, original implantation site (R), Example 478 100 mg/kg, F26 10 mg/kg i.p., listed as Example 47), 0 mm^3 (8×) and 32 mm^3; in experiment [2] (Study Day 19, original implantation site (R), Example 478 100 mg/kg, F26 10 mg/kg i.p., listed as Example 47), 51 mm^3 and 0 mm^3 (5×) and 875 mm^3 and 32 mm^3 and 371 mm^3 and 63 mm^3; in experiment [2] (Study Day 21, original implantation site (R), Example 478 100 mg/kg, F26 10 mg/kg i.p., listed as Example 47), 268 mm^3 and 0 mm^3 (5×) and 1320 mm^3 and 139 mm^3 and 762 mm^3 and 274 mm^3; in experiment [2] (Study Day 24, original implantation site (R), Example 478 100 mg/kg, F26 10 mg/kg i.p., listed as Example 47), 877 mm^3 and 0 mm^3 (5×) and 2470 mm^3 and 588 mm^3 and 1498 mm^3 and 291 mm^3; in experiment [2] (Study Day 26, original implantation site (R), Example 478 100 mg/kg, F26 10 mg/kg i.p., listed as Example 47), 1237 mm^3 and 0 mm^3 (4×) and 923 mm^3 and 1699 mm^3 and 14 mm^3. For the same compound, the Tumor volume in experiment [2] (Study Day 28, original implantation site (R), Example 478 100 mg/kg, F26 10 mg/kg i.p., listed as Example 47) was 1371 mm^3 and 0 mm^3 (4×) and 1056 mm^3 and 2035 mm^3 and 14 mm^3; in experiment [2] (Study Day 31, original implantation site (R), Example 478 100 mg/kg, F26 10 mg/kg i.p., listed as Example 47), 2334 mm^3 and 0R 0L mm^3 (4×) and 2113 mm^3 and 161 mm^3; in experiment [2] (Study Day 31, site of re-challenge (L)), 0R 0L mm^3; in experiment [2] (Study Day 33, original implantation site (R), Example 478 100 mg/kg, F26 10 mg/kg i.p., listed as Example 47), 0R 0L mm^3 and 289 mm^3 and 63 mm^3 and 32 mm^3 and 4 mm^3; in experiment [2] (Study Day 33, site of re-challenge (L), listed as Example 47), 0R 0L mm^3 and 0 mm^3 (3×); in experiment [2] (Study Day 38, original implantation site (R), Example 478 100 mg/kg, F26 10 mg/kg i.p., listed as Example 47), 0R 0L mm^3 and 425 mm^3 and 318 mm^3 and 124 mm^3 and 63 mm^3. In addition, the Tumor volume in experiment [2] (Study Day 38, site of re-challenge (L), listed as Example 47) is 0R 0L mm^3 and 0 mm^3 (3×); in experiment [2] (Study Day 40, original implantation site (R), Example 478 100 mg/kg, F26 10 mg/kg i.p., listed as Example 47) it was 0R 0L mm^3 and 464 mm^3 and 511 mm^3; in experiment [2] (Study Day 40, site of re-challenge (L), listed as Example 47) it was 0R 0L mm^3 and 0 mm^3 (2×).
